In patent US20240208968A1, “ALPHA V BETA 6 AND ALPHA V BETA 1 INTEGRIN INHIBITORS AND USES THEREOF” (DiCE Molecules SV, Inc., priority 2021, published 2024):

Legend:
[1] = target: αvβ1 (Homo sapiens, UniProt P05556+P06756); assay: Solid Phase Integrin αvβ1 Assay; format: binding
Procedure, shortened: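 Compound competes for αvβ1 binding to immobilized TGFb1-LAP (1 µg/mL coat) in Mn2+ (1 mM MnCl2), 2% BSA binding buffer over 90 min at room temperature, integrin added at 0.2 µg/mL. Read-out: streptavidin-HRP/TMB; IC50 from Levenberg-Marquardt four-parameter fit.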

[2] = target: αvβ6 (Homo sapiens, UniProt P06756+P18564); assay: Solid Phase Integrin αvβ6 Assay; format: binding
Chain of αvβ6 (P06756 31-992 limits assumed): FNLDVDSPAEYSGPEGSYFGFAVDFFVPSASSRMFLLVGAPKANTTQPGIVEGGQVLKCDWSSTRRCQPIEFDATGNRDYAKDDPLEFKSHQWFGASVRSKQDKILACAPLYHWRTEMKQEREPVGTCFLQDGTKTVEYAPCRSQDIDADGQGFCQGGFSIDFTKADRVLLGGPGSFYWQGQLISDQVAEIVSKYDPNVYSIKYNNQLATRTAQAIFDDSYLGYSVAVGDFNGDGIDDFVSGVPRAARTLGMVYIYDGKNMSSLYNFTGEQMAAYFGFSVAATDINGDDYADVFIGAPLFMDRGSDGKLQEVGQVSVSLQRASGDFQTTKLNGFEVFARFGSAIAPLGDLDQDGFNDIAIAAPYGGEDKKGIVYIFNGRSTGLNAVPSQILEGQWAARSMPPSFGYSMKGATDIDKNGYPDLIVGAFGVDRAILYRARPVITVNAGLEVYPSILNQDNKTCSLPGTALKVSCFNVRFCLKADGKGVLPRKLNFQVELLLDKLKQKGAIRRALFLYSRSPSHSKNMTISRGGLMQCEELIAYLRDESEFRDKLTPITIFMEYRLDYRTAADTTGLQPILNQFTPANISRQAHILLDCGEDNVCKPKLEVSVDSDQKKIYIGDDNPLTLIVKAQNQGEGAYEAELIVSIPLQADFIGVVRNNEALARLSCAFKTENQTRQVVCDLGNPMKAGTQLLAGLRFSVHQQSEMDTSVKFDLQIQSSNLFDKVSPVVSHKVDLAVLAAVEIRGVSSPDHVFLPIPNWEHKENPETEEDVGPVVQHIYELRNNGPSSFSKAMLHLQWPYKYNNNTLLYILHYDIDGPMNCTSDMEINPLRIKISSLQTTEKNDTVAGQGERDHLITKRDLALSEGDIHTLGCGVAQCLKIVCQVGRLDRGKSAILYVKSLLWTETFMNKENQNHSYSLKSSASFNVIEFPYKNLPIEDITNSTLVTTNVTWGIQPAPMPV
Chain of αvβ6 (P18564 22-707 limits assumed): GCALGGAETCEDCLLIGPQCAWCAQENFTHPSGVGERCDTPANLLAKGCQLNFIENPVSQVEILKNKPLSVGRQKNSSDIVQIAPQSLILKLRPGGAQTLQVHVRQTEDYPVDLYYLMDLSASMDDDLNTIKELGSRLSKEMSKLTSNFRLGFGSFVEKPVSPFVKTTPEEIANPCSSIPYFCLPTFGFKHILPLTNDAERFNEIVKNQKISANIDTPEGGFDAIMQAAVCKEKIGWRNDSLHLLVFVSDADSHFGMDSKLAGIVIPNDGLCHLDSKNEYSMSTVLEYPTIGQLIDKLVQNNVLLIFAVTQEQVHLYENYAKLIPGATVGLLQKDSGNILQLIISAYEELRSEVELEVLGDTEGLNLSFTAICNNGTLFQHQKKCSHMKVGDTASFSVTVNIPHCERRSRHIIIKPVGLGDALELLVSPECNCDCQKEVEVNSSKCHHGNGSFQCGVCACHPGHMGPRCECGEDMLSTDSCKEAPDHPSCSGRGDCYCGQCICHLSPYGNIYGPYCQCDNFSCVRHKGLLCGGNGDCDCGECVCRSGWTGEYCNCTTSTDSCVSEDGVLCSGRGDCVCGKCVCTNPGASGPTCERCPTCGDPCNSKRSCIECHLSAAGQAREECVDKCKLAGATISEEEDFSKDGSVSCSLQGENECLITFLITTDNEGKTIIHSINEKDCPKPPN
Procedure, shortened: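 Inhibition of αvβ6 binding to immobilized recombinant TGFb1-LAP (1 μg/mL coating), 1 h at room temperature with 1 mM MnCl2 in BSA/TBST buffer, integrin diluted to 0.2 μg/mL before addition. Streptavidin-HRP/TMB read-out; four-parameter logistic fitting gave IC50.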

Chain of αvβ1 (P06756 31-992 limits assumed): as the sequence (P06756 31-992 limits assumed) above
Chain of αvβ1 (P05556 21-728 limits assumed): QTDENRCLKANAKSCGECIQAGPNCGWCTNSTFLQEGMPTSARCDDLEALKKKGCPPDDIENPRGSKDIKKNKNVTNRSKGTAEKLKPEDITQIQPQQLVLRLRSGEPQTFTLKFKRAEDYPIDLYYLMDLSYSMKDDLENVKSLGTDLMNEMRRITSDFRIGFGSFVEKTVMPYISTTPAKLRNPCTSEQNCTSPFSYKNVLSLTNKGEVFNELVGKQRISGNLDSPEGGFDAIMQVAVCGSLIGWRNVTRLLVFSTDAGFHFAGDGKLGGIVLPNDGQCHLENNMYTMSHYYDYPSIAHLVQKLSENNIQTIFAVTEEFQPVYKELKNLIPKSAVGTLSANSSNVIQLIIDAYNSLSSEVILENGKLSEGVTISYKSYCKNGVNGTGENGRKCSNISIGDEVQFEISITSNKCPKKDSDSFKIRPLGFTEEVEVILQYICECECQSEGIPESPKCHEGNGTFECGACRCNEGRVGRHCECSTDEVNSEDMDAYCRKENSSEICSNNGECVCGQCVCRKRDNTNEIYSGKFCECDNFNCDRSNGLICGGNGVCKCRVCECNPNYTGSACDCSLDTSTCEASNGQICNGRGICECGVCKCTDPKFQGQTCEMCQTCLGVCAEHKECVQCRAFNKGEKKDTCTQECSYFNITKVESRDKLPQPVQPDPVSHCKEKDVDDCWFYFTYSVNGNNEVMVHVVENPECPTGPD

IC50 [1]	IC50 [2]	SMILES
100 to 1000 nM	> 1000 nM	O=C(O)[C@H](CCO[C@@H]1CCCN(Cc2ccc3c(n2)NCCC3)C1)NC(=O)C12CCC(CC1)CC2 [Compound 397]
< 100 nM	< 100 nM	O=C(O)[C@H](CCO[C@@H]1CCCN(CCc2ccc3c(n2)NCCC3)C1)NC(=O)C12CCC(CC1)CC2 [Compound 398]
< 100 nM	< 100 nM	O=C(O)[C@H](CCO[C@@H]1CCCN(CCCCc2ccc3c(n2)NCCC3)C1)NC(=O)C12CCC(CC1)CC2 [Compound 399]
< 100 nM	< 100 nM	O=C(O)[C@H](CO[C@@H]1CCCN(CCCc2ccc3c(n2)NCCC3)C1)NC(=O)C12CCC(CC1)CC2 [Compound 400]
> 1000 nM	> 1000 nM	O=C(O)[C@@H](CO[C@@H]1CCCN(CCCCc2ccc3c(n2)NCCC3)C1)NC(=O)C12CCC(CC1)CC2 [Compound 401]
100 to 1000 nM	< 100 nM	O=C(O)[C@H](CO[C@@H]1CCCN(CCCCc2ccc3c(n2)NCCC3)C1)NC(=O)C12CCC(CC1)CC2 [Compound 402]
> 1000 nM	> 1000 nM	O=C(O)[C@@H](CO[C@@H]1CCCN(Cc2ccc3c(n2)NCCC3)C1)NC(=O)C12CCC(CC1)CC2 [Compound 403]
> 1000 nM	> 1000 nM	O=C(O)[C@H](CO[C@@H]1CCCN(Cc2ccc3c(n2)NCCC3)C1)NC(=O)C12CCC(CC1)CC2 [Compound 404]
100 to 1000 nM	< 100 nM	O=C(O)[C@@H](CCO[C@@H]1CCCN(CCCCc2ccc3c(n2)NCCC3)C1)Nc1ncnc2ccccc12 [Compound 405]
100 to 1000 nM	100 to 1000 nM	O=C(O)[C@@H](CCO[C@@H]1CCCN(CCc2ccc3c(n2)NCCC3)C1)Nc1ncnc2ccccc12 [Compound 406]
> 1000 nM	> 1000 nM	O=C(O)[C@@H](CCO[C@@H]1CCCN(Cc2ccc3c(n2)NCCC3)C1)Nc1ncnc2ccccc12 [Compound 407]
> 1000 nM	> 1000 nM	O=C(O)[C@@H](CO[C@@H]1CCCN(CCCc2ccc3c(n2)NCCC3)C1)Nc1ncnc2ccccc12 [Compound 408]
> 1000 nM	< 100 nM	O=C(O)[C@H](CO[C@@H]1CCCN(CCCCc2ccc3c(n2)NCCC3)C1)Nc1ncnc2ccccc12 [Compound 409]
> 1000 nM	> 1000 nM	O=C(O)[C@@H](CO[C@@H]1CCCN(CCCCc2ccc3c(n2)NCCC3)C1)Nc1ncnc2ccccc12 [Compound 410]
> 1000 nM	> 1000 nM	O=C(O)[C@@H](CO[C@@H]1CCCN(Cc2ccc3c(n2)NCCC3)C1)Nc1ncnc2ccccc12 [Compound 411]
< 100 nM	< 100 nM	O=C(O)C[C@@H](NC(=O)[C@@H]1CCCN(CCCc2ccc3c(n2)NCCC3)C1)c1cccc(OC2COC2)c1 [Compound 412]
< 100 nM	< 100 nM	O=C(O)C[C@@H](NC(=O)[C@@H]1CCCN(CCCc2ccc3c(n2)NCCC3)C1)c1cnc2ccccc2c1 [Compound 413]
< 100 nM	> 1000 nM	O=C(O)C[C@@H](CC(=O)N[C@@H]1CCN(CCCCc2ccc3c(n2)NCCC3)C1)c1ccccc1 [Compound 414]
100 to 1000 nM	100 to 1000 nM	O=C(O)C[C@H](CC(=O)N[C@@H]1CCN(CCCCc2ccc3c(n2)NCCC3)C1)c1ccccc1 [Compound 415]
> 1000 nM	> 1000 nM	O=C(O)C[C@H](CC(=O)N[C@@H]1CCN(C(=O)CCCc2ccc3c(n2)NCCC3)C1)c1ccccc1 [Compound 416]
< 100 nM	100 to 1000 nM	O=C(O)C[C@@H](CC(=O)N[C@@H]1CCN(C(=O)CCCc2ccc3c(n2)NCCC3)C1)c1ccccc1 [Compound 417]
> 1000 nM	> 1000 nM	O=C(CC[C@H](C(=O)O)c1ccccc1)N[C@@H]1CCN(C(=O)CCCc2ccc3c(n2)NCCC3)C1 [Compound 418]
> 1000 nM	> 1000 nM	O=C(CC[C@@H](C(=O)O)c1ccccc1)N[C@@H]1CCN(C(=O)CCCc2ccc3c(n2)NCCC3)C1 [Compound 419]
> 1000 nM	> 1000 nM	O=C(CC[C@H](C(=O)O)c1ccccc1)N[C@@H]1CCN(CCCCc2ccc3c(n2)NCCC3)C1 [Compound 420]
> 1000 nM	> 1000 nM	O=C(CC[C@@H](C(=O)O)c1ccccc1)N[C@@H]1CCN(CCCCc2ccc3c(n2)NCCC3)C1 [Compound 421]
> 1000 nM	> 1000 nM	O=C(CC[C@H](C(=O)O)c1ccccc1)N[C@H]1CCN(CCCCc2ccc3c(n2)NCCC3)C1 [Compound 422]
> 1000 nM	> 1000 nM	O=C(CC[C@@H](C(=O)O)c1ccccc1)N[C@H]1CCN(C(=O)CCCc2ccc3c(n2)NCCC3)C1 [Compound 423]

IC50 [1]	IC50 [2]	SMILES
> 1000 nM	> 1000 nM	O=C(CC[C@H](C(=O)O)c1ccccc1)N[C@H]1CCN(CCCCc2ccc3c(n2)NCCC3)C1 [Compound 424]
> 1000 nM	> 1000 nM	O=C(CC[C@@H](C(=O)O)c1ccccc1)N[C@H]1CCN(CCCCc2ccc3c(n2)NCCC3)C1 [Compound 425]
< 100 nM	< 100 nM	O=C(CC[C@H](NC(=O)C12CCC(CC1)CC2)C(=O)O)N[C@@H]1CCN(CCCCc2ccc3c(n2)NCCC3)C1 [Compound 426]
> 1000 nM	> 1000 nM	O=C(CC[C@@H](NC(=O)C12CCC(CC1)CC2)C(=O)O)N[C@@H]1CCN(CCCCc2ccc3c(n2)NCCC3)C1 [Compound 427]
< 100 nM	< 100 nM	O=C(CC[C@H](NC(=O)C12CCC(CC1)CC2)C(=O)O)N[C@@H]1CCN(C(=O)CCCc2ccc3c(n2)NCCC3)C1 [Compound 428]
> 1000 nM	> 1000 nM	O=C(CC[C@@H](NC(=O)C12CCC(CC1)CC2)C(=O)O)N[C@@H]1CCN(C(=O)CCCc2ccc3c(n2)NCCC3)C1 [Compound 429]
< 100 nM	< 100 nM	O=C(CC[C@H](NC(=O)C12CCC(CC1)CC2)C(=O)O)N[C@H]1CCN(CCCCc2ccc3c(n2)NCCC3)C1 [Compound 430]
> 1000 nM	> 1000 nM	O=C(CC[C@@H](NC(=O)C12CCC(CC1)CC2)C(=O)O)N[C@H]1CCN(CCCCc2ccc3c(n2)NCCC3)C1 [Compound 431]
< 100 nM	< 100 nM	O=C(CC[C@H](NC(=O)C12CCC(CC1)CC2)C(=O)O)N[C@H]1CCN(C(=O)CCCc2ccc3c(n2)NCCC3)C1 [Compound 432]
> 1000 nM	> 1000 nM	O=C(CC[C@@H](NC(=O)C12CCC(CC1)CC2)C(=O)O)N[C@H]1CCN(C(=O)CCCc2ccc3c(n2)NCCC3)C1 [Compound 433]
< 100 nM	< 100 nM	O=C(CC[C@H](NC(=O)[C@H]1CCCN1S(=O)(=O)c1ccccc1)C(=O)O)N[C@H]1CCN(CCCCc2ccc3c(n2)NCCC3)C1 [Compound 434]
< 100 nM	100 to 1000 nM	O=C(CC[C@H](NC(=O)[C@@H]1CCCN1S(=O)(=O)c1ccccc1)C(=O)O)N[C@H]1CCN(CCCCc2ccc3c(n2)NCCC3)C1 [Compound 435]
100 to 1000 nM	> 1000 nM	O=C(CC[C@@H](NC(=O)[C@H]1CCCN1S(=O)(=O)c1ccccc1)C(=O)O)N[C@H]1CCN(CCCCc2ccc3c(n2)NCCC3)C1 [Compound 436]
< 100 nM	> 1000 nM	O=C(CC[C@@H](NC(=O)[C@@H]1CCCN1S(=O)(=O)c1ccccc1)C(=O)O)N[C@H]1CCN(CCCCc2ccc3c(n2)NCCC3)C1 [Compound 437]
< 100 nM	< 100 nM	O=C(CC[C@H](NC(=O)[C@H]1CCCN1S(=O)(=O)c1ccccc1)C(=O)O)N[C@H]1CCN(C(=O)CCCc2ccc3c(n2)NCCC3)C1 [Compound 438]
< 100 nM	100 to 1000 nM	O=C(CC[C@H](NC(=O)[C@@H]1CCCN1S(=O)(=O)c1ccccc1)C(=O)O)N[C@H]1CCN(C(=O)CCCc2ccc3c(n2)NCCC3)C1 [Compound 439]
100 to 1000 nM	> 1000 nM	O=C(CC[C@@H](NC(=O)[C@H]1CCCN1S(=O)(=O)c1ccccc1)C(=O)O)N[C@H]1CCN(C(=O)CCCc2ccc3c(n2)NCCC3)C1 [Compound 440]
< 100 nM	> 1000 nM	O=C(CC[C@@H](NC(=O)[C@@H]1CCCN1S(=O)(=O)c1ccccc1)C(=O)O)N[C@H]1CCN(C(=O)CCCc2ccc3c(n2)NCCC3)C1 [Compound 441]
100 to 1000 nM	100 to 1000 nM	O=C(O)C[C@H](CO[C@H]1CCCN(CCCc2ccc3c(n2)NCCC3)C1)c1ccccc1 [Compound 442]
100 to 1000 nM	100 to 1000 nM	O=C(O)[C@@H](CCO[C@H]1CCCN(CCCc2ccc3c(n2)NCCC3)C1)NC(=O)C12CCC(CC1)CC2 [Compound 443]
> 1000 nM	> 1000 nM	O=C(O)[C@@H](CCO[C@H]1CCCN(CCCc2ccc3c(n2)NCCC3)C1)Nc1ncnc2ccccc12 [Compound 444]
100 to 1000 nM	100 to 1000 nM	O=C(O)C[C@@H](CO[C@H]1CCCN(CCCc2ccc3c(n2)NCCC3)C1)c1ccccc1 [Compound 445]
100 to 1000 nM	< 100 nM	O=C(O)[C@H](CCO[C@H]1CCCN(CCCc2ccc3c(n2)NCCC3)C1)Nc1ncnc2ccccc12 [Compound 446]
< 100 nM	< 100 nM	O=C(O)[C@H](CCO[C@H]1CCCN(CCCc2ccc3c(n2)NCCC3)C1)NC(=O)C12CCC(CC1)CC2 [Compound 447]
< 100 nM	< 100 nM	CN1CCc2ccc(S(=O)(=O)N[C@@H](CNC(=O)[C@@H]3CCCN(CCCc4ccc5c(n4)NCCC5)C3)C(=O)O)cc21 [Compound 448]
< 100 nM	< 100 nM	O=C(NC[C@@H](Nc1cc(-c2ccccc2)ncn1)C(=O)O)[C@@H]1CCCN(CCCc2ccc3c(n2)NCCC3)C1 [Compound 449]
> 1000 nM	100 to 1000 nM	CN1CCc2cc(S(=O)(=O)N[C@H](CNC(=O)[C@@H]3CCCN(CCCc4ccc5c(n4)NCCC5)C3)C(=O)O)ccc21 [Compound 450]
